The source of these data is ChEMBL document CHEMBL1123871, “Methotrexate analogues. 30. Dihydrofolate reductase inhibition and in vitro tumor cell growth inhibition by N epsilon-(haloacetyl)-L-lysine and N delta-(haloacetyl)-L-ornithine analogues and an acivicin analogue of methotrexate” (J Med Chem, 1987).

Test [1] deals with L1210. In words: Inhibition of L1210 cultured murine leukemia cell growth. Conditions: Mus musculus. The class given is functional, cell-based.
Test [2] has as its system L1210. In words: Inhibition of L1210/R81 murine leukemia cell growth. The class given is functional, cell-based. The note with it: Mus musculus.
A short description of test [3]: Fold resistance calculated by dividing the IC50(L1210/R81) by the IC50(L1210).
A further test deals with T1, Dihydrofolate reductase (Mus musculus, UniProt P00375).
T1 sequence (P00375 whole entry): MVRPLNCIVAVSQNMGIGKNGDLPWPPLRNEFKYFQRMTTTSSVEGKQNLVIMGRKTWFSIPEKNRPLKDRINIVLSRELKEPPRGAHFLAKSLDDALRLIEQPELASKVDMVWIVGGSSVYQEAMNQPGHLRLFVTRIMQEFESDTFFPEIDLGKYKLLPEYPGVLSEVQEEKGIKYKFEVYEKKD

For orientation: IC50 means the point on the concentration scale where inhibition reaches its midpoint. Lower therefore signals greater potency in that assay.

Structures are written as SMILES.

Description for Dihydrofolate reductase: Inhibition of dihydrofolate reductase(DHFR) from L1210/R81 cells

On to `CN(Cc1cnc2nc(N)nc(N)c2n1)c1ccc(C(=O)NC(CCCNC(=O)CBr)C(=O)O)cc1` (stereo not drawn), for which the IC50 in the test with L1210 [1] came out at 0.126 µM; with L1210 [2], 0.155 µM; at Dihydrofolate reductase it was 0.046 µM. Also, the Resistance in test [3] is 1200.

For `CN(Cc1cnc2nc(N)nc(N)c2n1)c1ccc(C(=O)NC(CCCNC(=O)CCl)C(=O)O)cc1` (stereo not drawn), the IC50 came to 0.062 µM in the test with L1210 [1], 0.105 µM with L1210 [2] and 0.032 µM against Dihydrofolate reductase. The Resistance in test [3] was 1700.

`CN(Cc1cnc2nc(N)nc(N)c2n1)c1ccc(C(=O)NC(CCCCNC(=O)CBr)C(=O)O)cc1` (stereo not drawn): the IC50 amounted to 0.096 µM in the test on L1210 [1], 0.24 µM in the test with L1210 [2] and 0.072 µM against Dihydrofolate reductase. Further, the Resistance in test [3] was 2500.

On to `CN(Cc1cnc2nc(N)nc(N)c2n1)c1ccc(C(=O)NC(CCCCNC(=O)CCl)C(=O)O)cc1` (stereo not drawn), for which the values for the IC50 with L1210 [1], in the test with L1210 [2] and at Dihydrofolate reductase were 0.033 µM, 0.093 µM and 0.032 µM, respectively. Also, the Resistance in test [3] was 2800.

`CN(Cc1cnc2nc(N)nc(N)c2n1)c1ccc(C(=O)N[C@@H](CCC(=O)O)C(=O)O)cc1` [METHOTREXATE]: the IC50 in the test with L1210 [1] worked out at 0.005 µM. Also, the Resistance in test [3] is 44000.
